Test results published in ChEMBL document CHEMBL4402553, “Recent advances in the discovery and development of glyoxalase I inhibitors” (Bioorg Med Chem, 2020).

Key:
Lactoylglutathione lyase [1] = biological target: Lactoylglutathione lyase (Mus musculus, UniProt Q9CPU0); assay: Competitive inhibition of recombinant mouse His-tagged Glyoxalase-1 using GSH and MGO as substrate by spectrophotometric method
Lactoylglutathione lyase [2] = biological target: T1, Lactoylglutathione lyase (Homo sapiens, UniProt Q04760); assay: Competitive inhibition of human Glyoxalase-1 using GSH and MGO as substrate
Lactoylglutathione lyase [3] = biological target: T1, Lactoylglutathione lyase; assay: Inhibition of human Glyoxalase-1
Lactoylglutathione lyase [4] = biological target: T1, Lactoylglutathione lyase; assay: Inhibition of Glyoxalase-1 (unknown origin)
Lactoylglutathione lyase [5] = biological target: T1, Lactoylglutathione lyase; assay: Competitive inhibition of human Glyoxalase-1 using GSH and MGO as substrate by Michaelis-Menten analysis

T1 sequence (Q04760 whole entry): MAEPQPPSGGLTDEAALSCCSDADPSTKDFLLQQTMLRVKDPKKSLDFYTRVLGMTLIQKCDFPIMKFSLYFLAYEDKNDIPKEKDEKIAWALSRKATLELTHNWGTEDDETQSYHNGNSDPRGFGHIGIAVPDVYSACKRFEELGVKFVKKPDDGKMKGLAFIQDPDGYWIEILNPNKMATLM
Lactoylglutathione lyase (Mus musculus, UniProt Q9CPU0), sequence (Q9CPU0 whole entry): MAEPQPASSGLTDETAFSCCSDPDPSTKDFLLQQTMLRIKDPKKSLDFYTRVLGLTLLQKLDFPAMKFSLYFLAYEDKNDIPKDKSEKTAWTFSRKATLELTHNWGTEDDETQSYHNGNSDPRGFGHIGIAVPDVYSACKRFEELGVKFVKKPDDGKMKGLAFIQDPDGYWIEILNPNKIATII

For `COC(=O)c1c(C)cc(Oc2cc(C)cc(O)c2O)cc1O`, which Ki (Lactoylglutathione lyase [1]) is on record?
The Ki was 0.23 µM.

How did the Ki (Lactoylglutathione lyase [2]) turn out when `C#Cc1cccc(N(O)C(=O)CC[C@H](NC(=O)CC[C@H](N)C(=O)O)C(=O)NCC(=O)O)c1` was run?
The Ki was 0.001 µM.

`N[C@@H](CCC(=O)N[C@@H](CSC(=O)N(O)c1ccc(I)cc1)C(=O)NCC(=O)O)C(=O)O` was tested. Which Ki (Lactoylglutathione lyase [3]) did it give?
Its Ki is 0.01 µM.

How did the Ki (Lactoylglutathione lyase [2]) turn out when `C#Cc1ccc(N(O)C(=O)SC[C@H](NC(=O)CC[C@H](N)C(=O)O)C(=O)NCC(=O)O)cc1` was run?
Its Ki is 0.007 µM.

For `NS(=O)(=O)c1ccc2c(c1)S(=O)(=O)NC2=O`, which IC50 (Lactoylglutathione lyase [4]) is on record?
Its IC50 is 90 µM.

Which Ki (Lactoylglutathione lyase [5]) does the source give for `O=C(O)CNC(=O)[C@H](CSC(=O)N(O)c1ccc(Cl)cc1)NC(=O)CC[C@H](NC(=O)CCNC(=O)CCNC(=O)CCNC(=O)CCNC(=O)CCNC(=O)CCNC(=O)CCCCCCC(=O)NCCC(=O)NCCC(=O)NCCC(=O)NCCC(=O)NCCC(=O)NCCC(=O)N[C@@H](CCC(=O)N[C@@H](CSC(=O)N(O)c1ccc(Cl)cc1)C(=O)NCC(=O)O)C(=O)O)C(=O)O` here?
The Ki was 0.00096 µM.

Which Ki (Lactoylglutathione lyase [2]) does the source give for `C#Cc1cccc(N(O)C(=O)SC[C@H](NC(=O)CC[C@H](N)C(=O)O)C(=O)NCC(=O)O)c1` here?
Its Ki is 0.019 µM.

Which Ki (Lactoylglutathione lyase [1]) does the source give for `Cc1cc(O)c(O)c(Oc2cc(C)c(C(=O)O)c(O)c2)c1` here?
Its Ki is 0.15 µM.
